We go through 21 compounds from PubChem BioAssay AID588780 (Sanford-Burnham Center for Chemical Genomics, 2011).

Molecules are shown by their SMILES. The source made the active and inactive calls.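 The calls were made as follows: active = compounds whose fitted half-maximal concentration in the cell-protection dose series is at or below a set limit; inactive = the rest.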

In this experiment the test system is H9c2 cardiomyocytes, 2-deoxyglucose stress, ATP luminescence, 2 h. The experiment is described as follows: protection of cardiomyocytes from 2-deoxyglucose injury, dose response, cell-based, 2-deoxyglucose stress, uHTS hits (AID 588780).
Take `C=C1C(C)C2C(Cc3ccccc3)NC(=O)C23OC(=O)/C=C/C(O)CCCC(C)C/C=C/C3C1O` (stereo unspecified): the IC50 is > 79 µM (inactive).
`Cc1cc(=O)oc2cc(OCC(=O)N3CCN(C(=O)C4COc5ccccc5O4)CC3)c(Cl)cc12` (stereo unspecified): the IC50 was 12.7 µM.
With `CCCn1c(NC(=O)c2ccccc2)nc2ccccc21`, the IC50 was > 79 µM (inactive).
As to `CCOc1cc(/C=C/c2ccc3cccc([N+](=O)[O-])c3n2)ccc1OCC(=O)N(C)C`, the IC50 is 12.5 µM.
For `O=C(c1ccco1)N1CCN(Cc2nc3ccc([N+](=O)[O-])cc3c(=O)n2-c2ccccc2F)CC1`, the IC50 is > 79 µM (inactive).
For `CCOC(=O)N1CCN(C(=O)CSc2nc3ccccc3c(=O)n2-c2ccccc2)CC1` the value was 33.6 µM (inactive).
On to `Cc1sc2nc(CSCC(=O)N(C)c3ccccc3)[nH]c(=O)c2c1C`, for which the half-inhibitory concentration (IC50) was 29.8 µM.
For `O=C(CNC(=O)c1nc[nH]c1C(=O)NCC(=O)OCc1ccccc1)OCc1ccccc1` the value was 39.5 µM (inactive).
Regarding `COc1cc2nc(C3CCC3)nc(N3CCN(c4ccccn4)CC3)c2cc1OC`, the IC50 was > 79 µM (inactive).
Consider `O=C(CCc1nc2ccccc2c(=O)[nH]1)NCc1ccco1`, for which the IC50 was > 79 µM (inactive).
As to `O=C(CCc1nc2ccccc2c(=O)[nH]1)NNC(=O)c1ccc(F)cc1`, the IC50 is > 79 µM (inactive).
For `O=c1cc(CN2CCN(S(=O)(=O)c3cccc(Cl)c3)CC2)c2ccc(O)cc2o1` the value was > 79 µM (inactive); for `COc1ccc(/C=N/NC(=O)c2cc(-c3ccc4c(c3)OCO4)n[nH]2)cc1OC`, > 79 µM (inactive).
For `Cc1cccc(OCCn2nc(C(=O)O)c3ccccc3c2=O)c1` the value was > 79 µM (inactive); for `COc1cc(/C=N/NC(=O)c2cccnc2)ccc1OCC(=O)Nc1ccccc1Cl`, > 79 µM (inactive); for `O=C(CSc1nc2ccccc2c(=O)[nH]1)N1CCCCC1`, > 79 µM (inactive).
For `O=C(CCC(=O)N1CCN(C2CCCCC2)CC1)Nc1nnc(C(F)(F)F)s1` the value was > 79 µM (inactive); for `Cc1ccc(CN(C(=O)CNC(=O)c2cccs2)C(C(=O)NCC2CCCO2)c2ccccc2)cc1` (stereo unspecified), 14.1 µM; for `O=C(Nc1nnc(C2CC2)s1)c1cc(-c2ccccc2)nn1-c1ccccc1`, > 79 µM (inactive).
In the case of `CCN(c1ccc(NC(=O)COC(=O)c2ccc([N+](=O)[O-])o2)cc1)C(C)C`, the IC50 is > 79 µM (inactive).
For `O=C(Cc1n[nH]c(=O)c2ccccc12)NCc1ccc(Cl)cc1` the value was > 79 µM (inactive).
